This passage reports adhering cell density results from patent US11633477B2, “Treatment of cornea using laminin” (KYOTO PREFECTURAL PUBLIC UNIVERSITY CORPORATION, priority 2014, dated 2023).

The test system of this assay is rabbit bullous keratopathy model. Put plainly: Adhesion of injected cells to substrate after 24 hours in rabbit bullous keratopathy model, laminin with ROCK inhibitor. In kind it is in vivo. To be noted: average; 24 hours after injection of cultured RCEC into anterior chamber; Y-27632 100 μM in both groups, with or without laminin 511-E8 fragments 2.1 nM. On the procedure: A rabbit corneal endothelium was mechanically detached to make a bullous keratopathy model. Adhesion of injected cells to a substrate after 24 hours was compared between individuals injected with cultured rabbit corneal endothelial cells together with a ROCK inhibitor Y-27632 (+) (100 μM) into the anterior chamber and individuals injected with cells together with laminin 511-E8 fragments (2.1 nM) and Y-27632 (+) (100 μM). The rabbit was euthanized after 24 hours. Corneal tissue was extracted and subjected to phalloidin staining to evaluate the morphology and cell count of adhered cells.

Structures can show the parent of a compound that is named as a salt.

As for `C[C@@H](N)[C@H]1CC[C@H](C(=O)Nc2ccncc2)CC1` [Y-27632, (R)-(+)-trans-(4-pyridyl)-4-(1-aminoethyl)-cyclohexanecarboxamide dihydrochloride monohydrate, reference compound], the adhering cell density is given as 717.3 cells/mm^2.
